Measured values taken from patent US6358885B1, “Substituted phenylheterocyclic herbicides” (Mississippi State University, priority 1992, dated 2002).

Legend:
Assay in all cases: Test G preemergence/postemergence greenhouse plant response rating 0 to 100
smooth crabgrass = assay type: in vivo, Digitaria ischaemum; conditions: 0 to 100 scale
From the text: (§1) Seeds, rhizomes, or plant parts of alfalfa (Medicago ativa), annual bluegrass (Poa annua), bermudagrass (Cynodon dactylon), broadleaf signalgrass (Brachiaria plantaginea), common purslane (Portulaca oleracea), common ragweed (Ambrosia elatior), […] (Paspalum dilatatum), goosegrass (Eleusine indica), guineagrass (Panicum maximum), […] exaltata), johnsongrass (Sorghum halepense), large crabgrass (Digitaria sanguinalis), peanut (Arachis hypoagaea), pitted morningglory (Ipomoea lacunosa), purple nutsedge (Cyperus rotundus), sandbur (Cenchrus echinatus), smooth crabgrass (Digitaria ischaemum) and yellow nutsedge (Cyperus esculentus) were planted into greenhouse pots containing greenhouse planting medium. Each pot contained only one plant species. The test compound was dissolved in a non-phytotoxic solvent and applied preemergence and/or postemergence to the plants. Preemergence applications were made within one day of planting the seeds or plant parts. Postemergence applications were applied when the plants were in the two to four leaf stage (three to twenty cm). Test chemicals were dissolved in a non-phytotoxic solvent and applied preemergence and postemergence to the plants. Untreated control plants and treated plants were placed in the greenhouse and visually evaluated for injury at 13 to 21 days after herbicide application. […] A dash (-) response indicates no test result.

alfalfa = assay type: in vivo, Medicago ativa; conditions: 0 to 100 scale
From the text: as §1

common ragweed = assay type: in vivo, Ambrosia elatior; conditions: 0 to 100 scale
From the text: as §1

itchgrass = assay type: in vivo, Rottboellia exaltata; conditions: 0 to 100 scale
From the text: as §1

yellow nutsedge = assay type: in vivo, Cyperus esculentus; conditions: Rate 125 g/ha, 0 to 100 scale
From the text: as §1

common purslane = assay type: in vivo, Portulaca oleracea; conditions: 0 to 100 scale
From the text: as §1

large crabgrass = assay type: in vivo, Digitaria sanguinalis; conditions: 0 to 100 scale
From the text: as §1

annual bluegrass = assay type: in vivo, Poa annua; conditions: 0 to 100 scale
From the text: as §1

johnsongrass = assay type: in vivo, Sorghum halepense; conditions: 0 to 100 scale
From the text: as §1

broadleaf signalgrass = assay type: in vivo, Brachiaria plantaginea; conditions: 0 to 100 scale
From the text: as §1

goosegrass = assay type: in vivo, Eleusine indica; conditions: 0 to 100 scale
From the text: as §1

peanut = assay type: in vivo, Arachis hypoagaea; conditions: 0 to 100 scale
From the text: as §1

bermudagrass = assay type: in vivo, Cynodon dactylon; conditions: 0 to 100 scale
From the text: as §1

sandbur = assay type: in vivo, Cenchrus echinatus; conditions: 0 to 100 scale
From the text: as §1

guineagrass = assay type: in vivo, Panicum maximum; conditions: 0 to 100 scale
From the text: as §1

purple nutsedge = assay type: in vivo, Cyperus rotundus; conditions: Rate 125 g/ha, 0 to 100 scale
From the text: as §1

dallisgrass = assay type: in vivo, Paspalum dilatatum; conditions: 0 to 100 scale
From the text: as §1

pitted morningglory = assay type: in vivo, Ipomoea lacunosa; conditions: 0 to 100 scale
From the text: as §1

C#CCOc1cc(-c2nn3c(c2Br)CCCC3)c(F)cc1Cl [Compound 26]
Plant response rating, Smooth Crabgras (smooth crabgrass; POSTEMERGENCE, Rate 125 g/ha): 0
Plant response rating, Smooth Crabgras (smooth crabgrass; POSTEMERGENCE, Rate 250 g/ha): 0
Plant response rating, Smooth Crabgras (smooth crabgrass; PREEMERGENCE, Rate 125 g/ha): 0
Plant response rating, Smooth Crabgras (smooth crabgrass; PREEMERGENCE, Rate 250 g/ha): 40
Plant response rating, Alfalfa Var. (alfalfa; POSTEMERGENCE, Rate 125 g/ha): 20
Plant response rating, Alfalfa Var. (alfalfa; POSTEMERGENCE, Rate 250 g/ha): 50
Plant response rating, Alfalfa Var. (alfalfa; PREEMERGENCE, Rate 125 g/ha): 0
Plant response rating, Alfalfa Var. (alfalfa; PREEMERGENCE, Rate 250 g/ha): 60
Plant response rating, Cmn Ragweed (common ragweed; POSTEMERGENCE, Rate 125 g/ha): 80
Plant response rating, Cmn Ragweed (common ragweed; POSTEMERGENCE, Rate 250 g/ha): 100
Plant response rating, Cmn Ragweed (common ragweed; PREEMERGENCE, Rate 125 g/ha): 0
Plant response rating, Cmn Ragweed (common ragweed; PREEMERGENCE, Rate 250 g/ha): 20
Plant response rating, Itchgrass (itchgrass; POSTEMERGENCE, Rate 125 g/ha): 0
Plant response rating, Itchgrass (itchgrass; POSTEMERGENCE, Rate 250 g/ha): 0
Plant response rating, Itchgrass (itchgrass; PREEMERGENCE, Rate 125 g/ha): 0
Plant response rating, Itchgrass (itchgrass; PREEMERGENCE, Rate 250 g/ha): 50
Plant response rating, Yellow Nutsedge (yellow nutsedge; POSTEMERGENCE): 0
Plant response rating, Yellow Nutsedge (yellow nutsedge; PREEMERGENCE): 0
Plant response rating, Cmn Purslane (common purslane; POSTEMERGENCE, Rate 125 g/ha): 100
Plant response rating, Cmn Purslane (common purslane; POSTEMERGENCE, Rate 250 g/ha): 90
Plant response rating, Cmn Purslane (common purslane; PREEMERGENCE, Rate 125 g/ha): 30
Plant response rating, Cmn Purslane (common purslane; PREEMERGENCE, Rate 250 g/ha): 100
Plant response rating, Large Crabgrass (large crabgrass; POSTEMERGENCE, Rate 125 g/ha): 0
Plant response rating, Large Crabgrass (large crabgrass; POSTEMERGENCE, Rate 250 g/ha): 0
Plant response rating, Large Crabgrass (large crabgrass; PREEMERGENCE, Rate 125 g/ha): 90
Plant response rating, Large Crabgrass (large crabgrass; PREEMERGENCE, Rate 250 g/ha): 90
Plant response rating, Ann Bluegrass (annual bluegrass; POSTEMERGENCE, Rate 125 g/ha): 0
Plant response rating, Ann Bluegrass (annual bluegrass; POSTEMERGENCE, Rate 250 g/ha): 0
Plant response rating, Ann Bluegrass (annual bluegrass; PREEMERGENCE, Rate 125 g/ha): 0
Plant response rating, Ann Bluegrass (annual bluegrass; PREEMERGENCE, Rate 250 g/ha): 0
Plant response rating, Johnsongrass (johnsongrass; POSTEMERGENCE, Rate 125 g/ha): 0
Plant response rating, Johnsongrass (johnsongrass; POSTEMERGENCE, Rate 250 g/ha): 0
Plant response rating, Johnsongrass (johnsongrass; PREEMERGENCE, Rate 125 g/ha): 0
Plant response rating, Johnsongrass (johnsongrass; PREEMERGENCE, Rate 250 g/ha): 0
Plant response rating, Brdlf Sgnlgrass (broadleaf signalgrass; POSTEMERGENCE, Rate 125 g/ha): 0
Plant response rating, Brdlf Sgnlgrass (broadleaf signalgrass; POSTEMERGENCE, Rate 250 g/ha): 0
Plant response rating, Brdlf Sgnlgrass (broadleaf signalgrass; PREEMERGENCE, Rate 125 g/ha): 0
Plant response rating, Brdlf Sgnlgrass (broadleaf signalgrass; PREEMERGENCE, Rate 250 g/ha): 0
Plant response rating, Goosegrass (goosegrass; POSTEMERGENCE, Rate 125 g/ha): 0
Plant response rating, Goosegrass (goosegrass; POSTEMERGENCE, Rate 250 g/ha): 0
Plant response rating, Goosegrass (goosegrass; PREEMERGENCE, Rate 125 g/ha): 70
Plant response rating, Goosegrass (goosegrass; PREEMERGENCE, Rate 250 g/ha): 20
Plant response rating, Peanuts (peanut; POSTEMERGENCE, Rate 125 g/ha): 0
Plant response rating, Peanuts (peanut; POSTEMERGENCE, Rate 250 g/ha): 0
Plant response rating, Peanuts (peanut; PREEMERGENCE, Rate 250 g/ha): 0
Plant response rating, Bermudagrass (bermudagrass; POSTEMERGENCE, Rate 125 g/ha): 0
Plant response rating, Bermudagrass (bermudagrass; POSTEMERGENCE, Rate 250 g/ha): 0
Plant response rating, Bermudagrass (bermudagrass; PREEMERGENCE, Rate 125 g/ha): 0
Plant response rating, Bermudagrass (bermudagrass; PREEMERGENCE, Rate 250 g/ha): 0
Plant response rating, S. Sandbur (sandbur; POSTEMERGENCE, Rate 125 g/ha): 0
Plant response rating, S. Sandbur (sandbur; POSTEMERGENCE, Rate 250 g/ha): 0
Plant response rating, S. Sandbur (sandbur; PREEMERGENCE, Rate 125 g/ha): 0
Plant response rating, S. Sandbur (sandbur; PREEMERGENCE, Rate 250 g/ha): 0
Plant response rating, Guineagrass (guineagrass; POSTEMERGENCE, Rate 125 g/ha): 0
Plant response rating, Guineagrass (guineagrass; POSTEMERGENCE, Rate 250 g/ha): 0
Plant response rating, Guineagrass (guineagrass; PREEMERGENCE, Rate 125 g/ha): 0
Plant response rating, Guineagrass (guineagrass; PREEMERGENCE, Rate 250 g/ha): 30
Plant response rating, Purple Nutsedge (purple nutsedge; POSTEMERGENCE): 0
Plant response rating, Purple Nutsedge (purple nutsedge; PREEMERGENCE): 0
Plant response rating, Dallisgrass (dallisgrass; POSTEMERGENCE, Rate 125 g/ha): 0
Plant response rating, Dallisgrass (dallisgrass; POSTEMERGENCE, Rate 250 g/ha): 0
Plant response rating, Dallisgrass (dallisgrass; PREEMERGENCE, Rate 125 g/ha): 20
Plant response rating, Dallisgrass (dallisgrass; PREEMERGENCE, Rate 250 g/ha): 20
Plant response rating, Pit Morninglory (pitted morningglory; POSTEMERGENCE, Rate 125 g/ha): 0
Plant response rating, Pit Morninglory (pitted morningglory; POSTEMERGENCE, Rate 250 g/ha): 40
Plant response rating, Pit Morninglory (pitted morningglory; PREEMERGENCE, Rate 125 g/ha): 0
Plant response rating, Pit Morninglory (pitted morningglory; PREEMERGENCE, Rate 250 g/ha): 20
